# Laboratory results reported in patent publication US6812248B2, “Prevention and treatment of degenerative diseases by glutathione and phase II detoxification enzymes” (John Hopkins University School of Medicine, priority 2000, dated 2004).
# Read-outs that look alike come from different tables or passages of the source.
# B1: ciliary neurotrophic factor (CNTF): ciliary neurotrophic factor (protein, UniProt P26441 1-200, looked up)
# Ciliary neurotrophic factor: MAFTEHSPLTPHRRDLCSRSIWLARKIRSDLTALTESYVKHQGLNKNINLDSADGMPVASTDQWSELTEAERLQENLQAYRTFHVLLARLLEDQQVHFTPTEGDFHQAIHTLLLQVAAFAYQIEELMILLEYKIPRNEADGMPINVGDGGLFEKKLWGLKVLQELSQWTVRSIHDLRFISSHQTGIPARGSHYIANNKKM
# B2: brain-derived neurotrophic factor (BDNF): brain-derived neurotrophic factor (protein, UniProt P23560 129-247, looked up)
# Neurotrophic factor BDNF: HSDPARRGELSVCDSISEWVTAADKKTAVDMSGGTVTVLEKVPVSKGQLKQYFYETKCNPMGYTKEGCRGIDKRHWNSQCRTTQSYVRALTMDSKKRIGWRFIRIDTSCVCTLTIKRGR
# modifications: Neurotrophic factor BDNF
# What was measured:
# motor neurons [1] = settings: earlier use of the culture system as preclinical screen; cited from earlier work
# [2] = tested on: glutathione transferase (GST)
# Description: (§1) Mouse spinal cord cultures were prepared and cultured according to Rothstein, J D and Kuncl, R W. J. Neural Chem. 65:643-651 (1995). Cultures were treated with sulforaphane for 24 hours at concentrations of 0,1 μm, 5 μm, 10 μm and 20 μm.
# (§2) Mouse spinal cord cultures were prepared and cultured as above. Cultures were treated with sulforaphane for 2 weeks, twice a week, at concentrations of 1 μm, 5 μm and 10 μm.
# quinone reductase (QR) = tested on: quinone reductase (QR)
# Description: as §1, §2
# motor neurons [3] = settings: spinal cord explant; sulforaphane 0.5, 5, 10 μM for 3 weeks; FIG. 1
# Description: The general experimental procedure of THA-induced cytotoxicity was previously described (Ho T et al., Experimental Neurology, 161, 664-675, 2000), the contents of which are incorporated herein by reference. Rodent spinal cord tissue slices were treated with THA and/or sulforaphane. Sulforaphane was administered at concentrations at 0, 0.5 μM, 5 μM and 10 μM for 3 weeks, changing medium every three days. At the end of the experiment, each tissue slice was fixed and stained, and remaining neurons were counted.
# SOD-G93 mice = settings: oral daily gavage from weaning; expected result
# Description: Method: Transgenic animals will be divided into four groups of 10 animals per group. […] The third group will receive N-acetylcysteine alone, and a fourth group will receive vehicle control (CMC). […] Animals will begin treatment at weaning, and continue oral daily gavage of the drugs. Onset of disease will be monitored by alteration on rotorod performance. Animals will be studied twice weekly starting at 1 month of age. A surrogate survival measure will be determined by the ability of the animals to right themselves after being placed on the cage on their backs. If they are unable to right themselves after 30 seconds, they will be considered dead. The survival and rotorod performance of each group of the animal will be compared.
# glutathione (GSH) = settings: 1, 5 or 10 μM for 12 h, 24 h or 48 h; no THA; FIG. 2
# Description: Rat spinal cord slices were similarly prepared and cultured as in the above example but without THA treatment. The tissues were cultured for one or two weeks and then incubated with 1 μM, 5, μM, or 10 μM, of sulphoraphane for 12 h, 24 h or 48 h. The tissue slices were then harvested and sonicated and assayed for total GSH content (Richie J P et al., Clinical Chemistry, 42, 64-70, 1996, the contents of which are incorporated herein by reference).
# brain glutathione = test: Blood-brain barrier permeability / whole brain GSH levels after daily oral gavage; settings: one week, whole brain homogenate, FIG. 5
# [4] = treated 2 weeks, twice a week, at 1, 5, 10 μm, FIG. 4
# [5] = treated 24 hours at 1, 5, 10, 20 μm, FIG. 3
molecule,measurement,setting,value
"NCC1(CC(=O)O)CCCCC1 [gabapentin, reference compound]",Protection against chronic motor neuron degeneration,motor neurons [1],protective
"Nc1nc2ccc(OC(F)(F)F)cc2s1 [riluzole, reference compound]",Protection against chronic motor neuron degeneration,motor neurons [1],protective
C[S+]([O-])CCCCN=C=S (stereo not shown) [sulforaphane],Induction of GST activity,[2]; [4],induced
same,Induction of GST activity,[2]; [5],induced
same,Induction of QR activity,quinone reductase (QR); [4],induced
same,Induction of QR activity,quinone reductase (QR); [5],induced
same,Prevention of THA-induced motor neuron death,motor neurons [3],significantly prevented THA-induced motor neuron death
same,Survival of the animals compared to control,SOD-G93 mice,will improve the survival
same,Rise of GSH level in treated spinal cord tissue,glutathione (GSH),≤ 160%
same,Brain GSH levels,brain glutathione,elevate GSH levels in the brain
"insulin growth factor (IGF-1): insulin growth factor, potential neuroprotective agent",Protection against chronic motor neuron degeneration,motor neurons [1],protective
B1,Protection against chronic motor neuron degeneration,motor neurons [1],failed to protect
B2,Protection against chronic motor neuron degeneration,motor neurons [1],failed to protect
